# Results: a melting point compilation (Tetko et al.; mined from patent text by program, amines drawn as free bases though some values may be those of a salt)
row,melting point [°C],SMILES
1,152 to 153,N#Cc1c(F)cc(OCc2ccsc2)cc1OC(C(=O)O)c1ccccc1Cl (racemic)
2,230 to 232,CC(=O)NC(C(=O)O)c1ccc2occc2c1 (stereo not given)
3,> 250,Cc1c(C(=O)Nc2ccc(N3CCC(O)CC3)c(C#N)c2)c2cc(F)ccc2n1CC(=O)O
4,156 to 157,CC(=O)c1cccc(C(=O)N2CCN(C(=O)c3cc(C(F)(F)F)cc(C(F)(F)F)c3)[C@H](Cc3ccc(C)c(C)c3)C2)c1
5,205 to 206,O=C(O)c1cc(Br)cc2c1NCCS2
6,76 to 78,N#CSCC(I)=C(I)CCl
7,87.5 to 88.5,OC(c1ccccc1)C1CCN1C(c1ccccc1)c1ccccc1 (stereo not given)
8,127 to 128,COc1ccc(CNc2ccc(F)c(Cl)c2)cc1OC
9,173 to 175,CCOCc1nc2c(N)nc3cc(OCc4nc(-c5cccs5)no4)ccc3c2n1CC(C)(C)O
10,73 to 74,CC(C)c1nc(CCOC2=CCCCCCC2)n(C)c1Sc1cc(Cl)cc(Cl)c1
11,176,Fc1ccc(Cn2c(NC3CCN(CCNc4nc(-c5ccccc5)cs4)CC3)nc3ccccc32)cc1
12,235 to 237,Cn1cc(S(N)(=O)=O)c(=O)c2ccc(Cl)cc21
13,69 to 71,OCCCCCCCCCCCCCCCCCCCCCCC(F)(F)C(F)(F)C(F)(F)C(F)(F)F
14,134,Oc1nsc(SCc2ccc(Cl)cc2Cl)n1
15,289,COc1cc(C(=O)c2ncc3ccc(C(N)=O)cn23)ccc1[N+](=O)[O-]
16,138 to 139,CC(c1ccccc1)N1CCN(c2nn(C)c3c2Cc2ccccc2-3)CC1 (stereo not given)
17,123 to 125,O=C1NOCc2ccccc21
18,117 to 118,O=C(CCCCCCC(=O)N1CCN(CC(c2ccccc2)c2ccccc2)CC1)NO
19,180,COc1ccc(Br)c(C(=O)N2CCN(S(=O)(=O)c3ccc(Br)cc3)CC2)c1
20,105 to 109,COC(=O)c1cc(-c2ccccc2C)c(C(=O)OC)cc1I
21,134 to 136,COc1ccc(Nc2cnc3cnc(-c4ccc(O)cc4)nc3c2)cc1
22,166 to 168,CCCCC(O)c1c(C(C)C)nc(C(C)C)c(CO)c1-c1ccc(F)cc1 (stereo not given)
23,159 to 160,CCN1c2ncc(OCc3ccccc3)cc2C(=O)N(C)c2ccc(Cl)nc21
24,64,Cc1ccccc1OCC(O)CN (stereo not given)

row,melting point [°C],SMILES
1,89 to 91,CN(C(=O)OC(C)(C)C)c1cc(Oc2ccc(-c3ccc(O)cc3)cc2)ccc1N
2,110 to 111,O=C(CC(CSC(=O)c1ccccc1)C(=O)O)c1ccccc1 (stereo not given)
3,103 to 104,CCCCOc1nc2cc(C)nn2c2c1cnc1c2cnn1CC
4,238 to 239,O=C(CSc1ccccc1)c1ccc2[nH]c3ncc(Cl)cc3c2c1
5,131 to 133,O=C1C(=O)c2ccccc2C2=C1SCC1(CCN(CCOc3ccc(Cl)cc3)CC1)O2
6,73 to 77,N#Cc1c(N)cccc1Sc1ccccc1
7,182 to 185,O=C(Cn1c(-c2ccncc2)ncc(NC(=O)OCc2ccccc2)c1=O)NC(Cc1ccccc1)C(=O)C(F)(F)F (stereo not given)
8,91 to 93,CC(=O)N[C@@H](CO)C(=O)NCCO[N+](=O)[O-]
9,186 to 189,Nc1ccc(C2Sc3ccccc3C=C2c2ccc3c(c2)NC(=O)CO3)cc1 (stereo not given)
10,> 300,CC(=O)OCC1OC(n2c3ncccc3c3c4c(c5c6cccnc6[nH]c5c32)C(=O)N(CO)C4=O)C(OC(C)=O)C(OC(C)=O)C1OC(C)=O (stereo not given)
11,136,Cc1ccc(S(=O)(=O)OCCc2nc(-c3ccc(Br)cc3)oc2C)cc1
12,61 to 66,CN(C)c1cc(Oc2cccc(C(F)(F)F)c2)nc(C(=O)O)c1
13,78 to 80,CC(=O)Nc1ccccc1OCCCO
14,151 to 152,COCC1CCCN(/C(C)=C(/C#N)C(N)=S)C1 (stereo not given)
15,170 to 172,COc1cc(C2C3=C(COC3=O)Nc3ccc4cc[nH]c4c32)ccc1F (stereo not given)
16,123 to 127,CC(C(=O)O)c1ccc(CC2CCCCC2O)c(Cl)c1 (stereo not given)
17,226 to 228,CCn1cc(C(=O)O)c(=O)c2cc(F)c(N3CCN(C)C(c4ccsc4)C3)cc21 (stereo not given)
18,95 to 97,CC(C)C[C@H](NC(=O)NCc1ccccc1)C(=O)N[C@@H](Cc1ccccc1)C(=O)CSCc1ccco1
19,150 to 152,COCC(=O)N(c1c(C)cccc1C)C(CCO)C(=O)O (stereo not given)
20,221 to 223,N#CCC(=O)Nc1c([N+](=O)[O-])cnn1-c1c(Cl)cc(C(F)(F)F)cc1Cl
21,162 to 165,CC(C)(C)OC(=O)N1CCN(c2cccc(Cl)c2/C=N/NS(=O)(=O)c2ccccc2)CC1
22,81 to 83,CCCc1nc(C(=O)OCC)c(C(=O)OCC)[nH]1
23,184 to 186,COC1(c2cc(F)cc(OCc3ccc(C(=O)O)cc3)c2)CCOCC1
24,174 to 177,CC(C)c1cccc(C(C)C)c1NC(=O)NCC1(c2c(Cl)cccc2Cl)CCC1

row,melting point [°C],SMILES
1,151 to 152,Cc1ccccc1-c1cc(C#N)c[nH]1
2,243 to 245,COc1cc2c(Nc3ccc4cn[nH]c4c3)c(C#N)cnc2c(OC)c1OC
3,119 to 123,CC(C)(C)OC(=O)c1ncn2c1COc1ccccc1-2
4,81.5 to 84.5,CCC(C)COC(=O)Cn1cccc1-c1nc(-c2ccc(OC)cc2)c(-c2ccc(OC)cc2)s1 (stereo not given)
5,177,COc1ccccc1C1CCC(=O)C=C1C(=O)O (racemic)
6,146 to 147,ClCc1c2ccccc2c(Cc2ccccc2)c2ccccc12
7,163 to 165,CNC(=O)N1CCC(c2nn(-c3ccccc3)c3cc(F)ccc23)CC1
8,315 to 317,O=C1NCC(Cc2ccccc2)C2=C1N=C1N=C(N3CCOCC3)NN1C2 (stereo not given)
9,218,Cc1ccc(-c2[nH]c(C(C)(C)C)nc2C(=O)Nc2nccs2)cc1
10,188 to 190,CCOc1cc(C(=O)OC)nc2cc(OC)c3ncccc3c12
11,74 to 75,CCOC(=O)CCCCN(C(=O)c1ccc(Cl)cc1)c1cccc2ccccc12
12,148 to 149,COc1cccc(-c2cc(N)c3cc(OC)ccc3n2)c1
13,121,O=[N+]([O-])c1cc(Cn2ccnc2)ccc1NC1CCCCC1
14,116 to 118,O=S(=O)(Cl)c1nc2ccccn2n1
15,70 to 73,COC(=O)C(Cc1ccc(OS(=O)(=O)C(F)(F)F)cc1)NC(=O)OCc1ccccc1 (stereo not given)
16,169 to 171,CCN(CC)c1ccc2cc(C=CC(=O)c3c(N(CC)CC)c4ccccc4oc3=O)oc2c1
17,68,CC(=O)OC1CSC(Oc2cncc(-c3cnn(C)c3)c2)C(OC(C)=O)C1OC(C)=O (stereo not given)
18,262 to 264,O=c1c(-c2ccc(O)cc2)coc2ncccc12
19,162 to 163,COc1cc(COc2nn(-c3ccccc3)cc2/C=C/c2nnco2)ccc1OCc1nc(-c2ccco2)oc1C
20,178 to 180,Cc1cccc(C)c1NC(C)C(=O)O (stereo not given)
21,> 250,C1=C(c2ccccc2)c2ccccc2C1(Cc1ccncc1)Cc1ccncc1
22,225,Nc1cccc(-c2ccc3nncn3n2)c1
23,217 to 218,CN1C(=O)N(CC(COc2ccc(-c3ccncc3)cc2)N(O)C=O)C(=O)C1(C)C (stereo not given)
24,62 to 64,CC1(C)COC(c2ccc(Br)cc2)OC1

row,melting point [°C],SMILES
1,265,Fc1ccc(-c2nc(SCSc3nc(-c4ccc(F)cc4)c(-c4ccc(F)cc4)[nH]3)[nH]c2-c2ccc(F)cc2)cc1
2,319 to 320,Cc1cccc2c(C(=O)O)cc(-c3ccccn3)nc12
3,159 to 160,CN(C)C(=O)COc1cc(Cl)ccc1C(=O)NCCN1CCN(CCc2ccccc2)CC1
4,213 to 215,COc1cc2nc(S(=O)Cc3nccc(N4CCOCC4)c3F)[nH]c2cc1OC (stereo not given)
5,246 to 248,Nc1cc(=O)n(C2CCCC2)c2nc(N[C@H]3CC[C@H](O)CC3)ncc12
6,65 to 66,Nc1cccc2c(Br)cccc12
7,110 to 112,COCC1CN(c2ccc3cc(OC(C)=O)ccc3c2)C(=O)O1 (stereo not given)
8,100 to 105,Cc1cc(Oc2nc(-c3ccccc3)ns2)c(C)cc1N=CN(C)C
9,178 to 180,Cc1c(C#N)cc(C(C)(C)C)c(O)c1C(=O)Nc1ccc(S(=O)c2ccc(Br)cc2)cc1C(F)(F)F (stereo not given)
10,124,Cc1cc(C#N)cc(C)c1OCCCC1=NNC(=O)CC1
11,154 to 160,COc1ccc(Nc2nc(-c3cccc(C(=O)Nc4ccc(C(=O)OCc5ccccc5)cc4)c3)cn3ccnc23)cc1OC
12,196,CCC(CC)n1ccn(-c2ccc(N3CCN(c4ccc(OC)cc4)CC3)cc2)c1=O
13,112 to 113,CCCN(C(C)=O)c1ccc(C(=O)N2CCN(CCc3ccc(Cl)cc3)CC2)cc1
14,160 to 162,CC(C)(C)OC(=O)NCc1ccc(C(=O)NNC(=O)OCc2ccccc2)cc1
15,128 to 136,COc1ccc2c(c1)C(NC(=O)C(F)(F)F)CC2 (stereo not given)
16,120 to 123,CC(C)n1nnc2c(NCc3ccccc3O)nc(N[C@H]3CC[C@H](N)CC3)nc21
17,195,COc1cccc(-c2cccc(OC3SCC(OC(C)=O)C(OC(C)=O)C3OC(C)=O)c2)n1 (stereo not given)
18,65 to 67,O=C(O)CCCC1(c2ccc(F)cc2)OCCO1
19,90 to 105,O=C(O)C1C(C=C(Cl)Cl)C12CCCC2 (stereo not given)
20,136 to 138,Cc1c(Cl)cnc(N)c1F
21,159 to 165,CO[C@@H]1CC[C@@H](NC(N)=O)c2ccccc21 (relative stereo)
22,205 to 206,N=C(NO)c1ccc(-c2ccc(-c3ccc(C(=N)NO)o3)o2)cc1
23,143 to 145,O=C(NCc1cccs1)C12CC3CC(CC1C3)C2

row,SMILES,melting point [°C]
1,CC(=O)NC(=S)NCC1CC2c3cccc4[nH]cc(c34)CC2N(C)C1 (stereo not given),204 to 205
2,CC(C)(Cc1nc2c(N)nc3ccccc3c2s1)OC(N)=O,222 to 223
3,Cc1cc(C2=NOC(c3cc(Cl)cc(Cl)c3)(C(F)(F)F)C2)ccc1C(=O)NC(N)=O (stereo not given),201 to 205
4,COC(=O)C1C=C2c3cccc4[nH]c(C)c(c34)CC2N(C)C1 (stereo not given),154
5,Cn1c(=O)n(C2CCNCC2)c2ccc(Cl)cc21,201
